Measurements published in patent US20200179392A1, “Idelalisib for Treating Proliferative Vitreoretinopathy and Abnormal Intraocular Neovascularization” (priority 2016, published 2020).

Test system: RPEM cells
Assay: Collagen contraction assay, RPEM cells with vitreous
Assay type: cell-based, human
Conditions: idelalisib 5 μM, 48 hours
Experimental: 3D. The RPEM cells were re-suspended in 1.5 mg/ml of neutralized collagen I at a density of 1×10^6 cells/ml and seeded into wells of a 24-well plate. The solidified gels were overlaid with either DMEM/F12 alone (-), or RV supplemented with idelalisib (5 μM) or its vehicle as indicated. After 48 hours the gel diameter was measured and the gel area were calculated. A photograph of a representative experiment is shown at the bottom of the bar graphs. The mean±standard deviation (SD) of three independent experiments is shown; * denotes […]<0.05 using an unpaired t-test. RPEM cells were re-suspended in 1.5 mg/ml of neutralized collagen […], Fremont, Calif.) (pH 7.2) at ice at a density 1×10^6 cells/ml^24, 54. The mixture was transferred into wells of 24-well plates that had been preincubated overnight with 5 mg/ml bovine serum albumin/PBS. After the collagen had polymerized at 37° C. for 90 minutes, 0.5 ml DMEM/F12 or RV (1:2 dilution in DMEM/F12) with or without idelalisib (5 μM) was added. On day 3, the gel diameter was measured and the gel area was calculated using a formula 3.14×r^2, where r is the radius of the gel. At least three independent experiments were performed^24, 55.

Q: `CC[C@H](Nc1ncnc2[nH]cnc12)c1nc2cccc(F)c2c(=O)n1-c1ccccc1` [idelalisib] was tested. Which “effect on vitreous-induced collagen contraction of RPEM cells” value did it give?
A: Its value is “completely blocked”.
